Measurements: ChEMBL document CHEMBL5120898, “Bathiapeptides: Polythiazole-Containing Peptides from a Marine Biofilm-Derived Bacillus sp” (J Nat Prod, 2022)

What was measured:
Format in all cases: functional, cell-based
HepG2 = experiment: Cytotoxicity against human HepG2 cells assessed as inhibition of cell growth incubated for 24 hrs by MTT assay; details: HepG2, 24 h
MCF7 = experiment: Cytotoxicity against human MCF7 cells assessed as inhibition of cell growth incubated for 24 hrs by MTT assay; details: MCF7, 24 h
HeLa = experiment: Cytotoxicity against human HeLa cells assessed as inhibition of cell growth incubated for 24 hrs by MTT assay
MGC-803 = experiment: Cytotoxicity against human MGC-803 cells assessed as inhibition of cell growth incubated for 24 hrs by MTT assay; details: MGC-803, 24 h

Row | SMILES | IC50 (HepG2) [µM] | IC50 (MCF7) [µM] | IC50 (HeLa) [µM] | IC50 (MGC-803) [µM]
1 | CC[C@H](C)[C@H](NC(=O)[C@H](N)Cc1ccccc1)C(=O)N[C@H](C)c1nc(-c2nc(-c3nc(C(=O)O)cs3)cs2)cs1 | > 50 | > 50 | > 50 | > 50
2 | CC[C@H](C)[C@H](NC(=O)[C@@H](Cc1ccccc1)NC(C)=O)C(=O)N[C@H](C)c1nc(-c2nc(-c3nc(C(=O)O)cs3)cs2)cs1 | > 50 | > 50 | > 50 | > 50
3 | CC(C)[C@@H]1NC(=O)[C@@H](Cc2ccccc2)NC(=O)c2csc(n2)-c2csc(n2)-c2csc(n2)[C@@H](C)NC1=O | 5 | 3 | 8 | 2.9
4 | CC[C@H](C)[C@@H]1NC(=O)[C@@H](Cc2ccccc2)NC(=O)c2csc(n2)-c2csc(n2)-c2csc(n2)[C@@H](C)NC1=O | 4.1 | 0.5 | 1.5 | 0.8
5 | CC[C@H](C)[C@@H]1NC(=O)[C@@H](Cc2ccccc2)NC(=O)c2csc(n2)-c2csc(n2)-c2csc(n2)[C@@H](CO)NC1=O | > 50 | 12.4 | 16.3 | 15.7
6 | CC[C@H](C)[C@@H]1NC(=O)[C@@H](Cc2ccccc2)NC(=O)c2csc(n2)-c2csc(n2)[C@@H](C)NC1=O | > 50 | > 50 | > 50 | > 50
7 | CC[C@H](C)[C@@H]1NC(=O)[C@@H](Cc2ccccc2)NC(=O)c2csc(n2)-c2csc(n2)-c2csc(n2)[C@H](C)NC1=O | 13.1 | 10 | 29.6 | 16.4
8 | CC[C@H](C)[C@@H]1NC(=O)[C@@H](Cc2ccccc2)NC(=O)c2csc(n2)-c2csc(n2)-c2csc(n2)CNC1=O | 4.5 | 2.4 | 4.6 | 5.8
